The test system of data set [1] is WNV. Put plainly: virus yield reduction assay, WNV. The settings on record: for EC50: West Nile virus, Vero, read-out: WNV EC50. It counts as cell-based, West Nile virus. How it is done:
(§1) This example describes an assay used to evaluate inhibitor antiviral activity. Inhibitor screening, virus yield reduction, and cytotoxicity assays all employed Vero cells and media containing 2% FCS. Compound libraries were assayed for WNV antiviral activity by screening for protection of infected Vero cells from WNV cytopathic effects (CPE). To do so, 10^4 Vero cells in 96 well plate wells were pretreated with a final concentration of 10 μg/mL drug in a total volume of 1 μL DMSO, infected with WNV at a multiplicity of infection (MOI) of 0.2, and screened for protection from CPE for 3-5 d post-infection (PI). Virus yield reduction assays were modified from previous protocols (Hirsch, A., Medigeshi, G., Meyers, H., DeFilippis, V., Fruh, K., Briese, T., Lipkin, W. I., and Nelson, J. (2005). The Src family kinase c-Yes is required for maturation of West Nile virus particles. J. Virol. 79, 11943-11951). Briefly, 10^4 Vero cells in 96 well plate wells were treated with compound dilutions in 1 μL DMSO, and infected with WNV at an MOI of 1-3. At 20-24 h PI, virus-containing media samples were titered by limiting dilution on fresh Vero cells. After 5 d, media were removed, and surviving cells were stained with 0.0375% crystal violet in ethanol. For cytotoxicity assays, 10^4 Vero cells per 96 well plate well were treated with compound dilutions, grown for 48 h, and subjected to colorimetric assays for dehydrogenase levels in metabolically active cells using MTS (3-[4,5-dimethylthiazol-2-yl)-5-[3-carboxymethyoxy phenyl]-2-[4-sulfophenyl]-2H-tetrazolium]; Promega) substrate. MTS cytotoxicity assay results were confirmed microscopically by scoring for Trypan Blue (0.2%) exclusion.
(§2) Several antiviral sultams were evaluated in using these methods. The results, including CC50 and EC50 values for WNV and JEV, were determined by MTS cytotoxicity assays and virus yield reduction assays and are recorded in Table 2.

A further data set concerns JEV. The experiment in a line: virus yield reduction assay, JEV. The data set is classed as cell-based. The following applies: Japanese encephalitis virus, Vero, read-out: JEV EC50. How it is done: as §1, §2
Data set [2] is described as follows: MTS cytotoxicity assay (48 h). The data set is classed as cell-based. The settings on record: African green monkey; MTS, Vero cells, 48 h. How it is done:
as §1, §2
For orientation: Tetrazolium dyes change colour on reduction, which living cells bring about.

The test system of data set [3] is WNV. The experiment in a line: protection of infected Vero cells from WNV cytopathic effects. The settings on record: WNV 0.2 MOI. The data set is classed as cell-based, West Nile virus. How it is done: as §1, with “For cytotoxicity assays, 10^4 Vero cells per 96 well plate well were treated with compound dilutions, grown for 48 h, and subjected to colorimetric assays for dehydrogenase levels in metabolically active cells using MTS (3-[4,5-dimethylthiazol-2-yl)-5-[3-carboxymethyoxy phenyl]-2-[4-sulfophenyl]-2H-tetrazolium]; Promega) substrate. MTS cytotoxicity assay results were confirmed microscopically by scoring for Trypan Blue (0.2%) exclusion.” left out
For orientation: Cytopathic effects are the visible damage that an infection or toxin causes in cultured cells.

Data set [4] has as its system Vero cells. Put plainly: MTS cytotoxicity assay (48 h). It counts as cell-based. The settings on record: highest drug concentrations employed. On the procedure:
as §1, §2

Data set [5] deals with WNV E. The experiment in a line: WNV E protein expression by immunofluorescence. The data set is classed as cell-based, West Nile virus. The following applies: 10 μg/mL, Vero cells, MOI 3, 24 h PI. How it is done:
E protein expression was assayed by immunofluorescence and immunoblotting. Immunofluorescent and immunoblot detection of WNV E employed a commercially available anti-E monoclonal antibody (Chemicon Mab 8150). For immunofluorescence, Vero cells in DMEM, plus penicillin, streptomycin, and 2% FCS were mock-treated with DMSO, or treated with 10 μg/mL of inhibitor compound in DMSO, and infected with WNV at an MOI of 3. At 24 h PI, cells were processed for immunofluorescent detection of WNV E using a standard protocol at room temperature (Arvidson, B., Seeds, J., Webb, M., Finlay, L., and Barklis, E. (2003). Analysis of the retrovirus capsid interdomain linker region. Virology 308, 166-177). Briefly, washed cells were fixed 20 min in 3.7% formaldehyde in phosphate-buffered saline (PBS; 9.5 mM sodium potassium phosphate [pH 7.4], 137 mM NaCl, 2.7 mM KCl), washed, permeabilized 10 min in 0.2% Triton X-100 in PBS, washed, incubated 1 h with primary antibody diluted in DMEM plus 10% heat inactivated FCS (DMEM+FCS), washed, incubated 1 h with 1:1000 diluted Alexafluor594-conjugated goat anti-mouse secondary antibody (Molecular Probes; Invitrogen) in DMEM+FCS, washed, and mounted with PBS in 50% glycerol. Images were collected electronically on a Zeiss fluorescence microscope.
A handful of E protein-positive cells was observed over the faint background staining of the majority of cells.

Data set [6] relates to WNV E. Put plainly: WNV E protein expression by immunoblot. The data set is classed as cell-based, West Nile virus. The following applies: 5 μg/mL, Vero cells, MOI 5, 18 h PI. On the procedure:
For immunoblot detection of WNV E Vero cells on […] in 1 mL media were mock-treated with 5 μL DMSO or treated with 5 μL 1 mg/mL inhibitor compound in DMSO (final concentration 5 μg/mL inhibitor compound), and infected with WNV at an MOI of 5. At 18 h PI, media were removed, cells were collected in IPB (10 mM Tris-hydrochloride [pH 7.5], 150 mM NaCl, 1 mM ethylenediaminetetraacetic acid (EDTA), 0.1% sodium dodecyl sulfate [SDS], 0.5% sodium deoxycholate, 1% Triton X-100, 0.02% sodium azide), mixed with 1 volume of 2 x sample buffer (12.5 mM Tris-hydrochloride [pH 6.8], 2% SDS, 20% glycerol, 0.25% bromphenol blue) plus 0.1 volume of β-mercaptoethanol (β-Me). Samples were frozen at −20° C., heated 5 min to 90° C. and subjected to SDS-polyacrylamide gel electrophoresis (SDS-PAGE). After electrophoresis and electroblotting onto nitrocellulose filters, WNV E proteins were detected using a dilution of Mab 8150 as the primary antibody, an alkaline phosphatase-conjugated goat anti-mouse IgG secondary antibody (Promega), and a BCIP (5-bromo-4-chloro-3-indolyl phosphate) plus NBT (nitroblue tetrazolium)-mediated color reaction for visualization.
Immunoblotting was performed using a similar infection regime as in the immunofluorescence protocol. […] The WNV envelope protein was detected as a band at approximately 55 kDa in cells treated with DMSO, or with ineffective candidate inhibitors.
A general note: Immunoblotting shows a protein as a band on a membrane.

Another data set has as its system WNV NY99. Put plainly: RT real-time PCR quantitation of WNV RNA. The data set is classed as cell-based, West Nile virus. The following applies: 5 μg/ml, MOI 5, 18 h PI. On the procedure: Cells were DMSO mock-treated or treated with 5 μg/ml TYT-1, and then mock-infected or infected with WNV NY99 at an MOI of 5. At 18 h PI, RNAs were isolated from cells and subjected to reverse transcription (RT) real-time PCR quantitation of WNV RNA following the protocol of Briese et al. (Briese, T., Glass, W., and Lipkin, W. I. (2000). Detection of West Nile virus sequences in cerebrospinal fluid. Lancet 355, 1614-1615). […] Thus, inhibition of WNV NY99 replication by TYT-1 is accompanied by a reduction in viral protein and viral RNA expression levels.

Data set [7] deals with Vero cells. Put plainly: MTS toxicity screening assay (3 d). The data set is classed as cell-based. The following applies: 10 μg/ml, subconfluent Vero cells. The source says: TYT-1 was screened for toxicities using a colorimetric cell proliferation assay which employs MTS substrate to measure dehydrogenase activity in metabolically active cells (Barltrop, J. et al. (1991) 5-(3-carboxymethoxyphenyl)-2-(4,5-dimethylthiazoly)-3-(4-sulfophenyl)tetrazolium, inner salt (MTS) and related analogs of 3-(4,5-dimethyl thiazolyl)-2,5-diphenyltetrazolium bromide (mTT) reducing to purple water-soluble formazans as cell-viability indicators. Bioorg. & Med. Chem. Lett. 1, 611).
In this assay, subconfluent Vero cells were untreated, or treated 3 d with 10 μg/ml compound, and then subjected to MTS dehydrogenase assays, in which 490 nm absorbance values are proportional to cell viability signals. Results were plotted as the percentage of all treated compounds versus the percentage of the assay signal for untreated samples. Thus, nontoxic compounds give a signal approximately 100% that of the untreated signal.

Data set [8] has as its system West Nile virus (WNV; strain NY99). The experiment in a line: protection of mice from WNV lethality. It counts as in vivo, C57BL/6N mice. The following applies: 400 pfu WNV s.c. On the procedure:
This example describes the protective effect exerted by examples of the disclosed compounds against challenge with flaviviruses. […] With reference to FIG. 2A, on day 0, two groups of five C57BL/6N mice each were injected subcutaneously with 400 plaque forming units (pfu) of West Nile virus (WNV; strain NY99). Four hours prior to virus infection, and at two and four days post-infection (PI), one set of mice was injected i.p. with 0.02 ml DMSO per mouse (mock), while the other set was injected with 10 mg/kg TYT-1 in 0.02 ml DMSO. Survival was tracked for 21 days PI, and results are plotted as overall percentage survival for each group, versus the number of days PI. […] With reference to FIG. 2B, two groups of C57BL/6N mice were infected on day 0 with WNV as described above. Prior to infection, the 15 mice in the mock group were injected subcutaneously with 0.025 ml of DMSO, while the 10 mice in the experimental group were injected with 10 mg/kg TYT-1 in DMSO. Mice subsequently were injected i.p. with DMSO or TYT-1 at days 2, 4, 6, 8; and survival was tracked as above. […] The combined results of these two trial yielded a survival rate of 6/20 for mock treated mice and 11/15 for TYT-1 treated mice.

The record followed here is patent US20110288136A1, “FLAVIVIRUS INHIBITION BY SULTAMS AND RELATED COMPOUNDS” (Oregon Health & Science University, priority 2006, published 2011).

A word on the EC50: it is the concentration giving half of the maximal effect. In general, CC50 refers to the concentration giving 50% cytotoxicity. Low readings indicate harm at low concentration, high ones better tolerance by the cells.

Where “and” joins values, the source holds several entries; their conditions need not be identical. Equal entries are not always repeated.

For `O=S1(=O)CS/C(=N\C(=S)N(Cc2ccccc2)Cc2ccccc2)N1c1ccccc1` [TYT-4, (1,1-dioxido-2-phenyl-1,4,2-dithiazolidin-3-ylidene)-bis(phenylmethyl)-thiourea], the figures for the half-maximal effective concentration (EC50) with WNV [1] and in the data set on JEV were 22 µM and 65 µM, respectively. Also, the CC50 at 48 h in data set [2] was determined as 65 µM.

Regarding interferon alpha, the “protection of cells from WNV challenge” value in the data set with WNV [3] (1000 IU/ml) is “failed to protect cells”.

Consider `CC(C)N(C(=S)/N=C1\SCS(=O)(=O)N1Cc1ccccc1)C(C)C` [TYT-3, [1,1-dioxido-2-(phenylmethyl)-1,4,2-dithiazolidin-3-ylidene]bis(1-methylethyl)-thiourea], for which the EC50 with WNV [1] came to 80 µM; in the data set with JEV it was 8 µM. The CC50 at 48 h in data set [2] was more than 80 µM. In addition, in the data set with Vero cells [4], the 50% cytotoxicity entry is given as “not obtained”.

Take `CC(C)N(C(=S)/N=C1\SC(C)S(=O)(=O)N1C)C(C)C` (stereo not shown) [TYT-2, (2,5-dimethyl-1,1-dioxido-1,4,2-dithiazolidin-3-ylidene)bis(1-methylethyl)thiourea]: the EC50 in the data set on WNV [1] and in the data set with JEV was 30 µM throughout. Further, in [2], the CC50 at 48 h turned out to be 90 µM.

For the molecule `O=S1(=O)CS/C(=N\C(=S)N(c2ccccc2)c2ccccc2)N1c1ccccc1` [TYT-1, N′-(1,1-dioxido-2-phenyl-1,4,2-dithiazolidin-3-ylidene)-N,N-diphenylthiourea], the “reduction of viral titers” value in the data set with WNV [1] (1 μg/ml) was “at least 100 fold”. For the same molecule, the half-maximal effective concentration (EC50) in the data set with WNV [1] was 0.7 µM; in the data set on JEV, 7 µM. In addition, the “reduction of WNV titers” value in the data set with WNV [1] (repeated tests) is 100- to 10,000 fold and 100-10,000 fold. In data set [2], the CC50 at 48 h is more than 70 µM. The 50% cytotoxicity result with Vero cells [4] was “not obtained”. In addition, the “cells expressing high levels of WNV E (immunofluorescence)” value with WNV E [5] is “very few cells”. The “E protein signal (immunoblot)” value with WNV E [6] was “essentially no E protein signal”. The “WNV RNAs per cell” value with WNV NY99 stood at 27 copies per cell. Moreover, the MTS signal with Vero cells [7] is 136 % of untreated levels. Besides, the “animals succumbed at 21 days” value in data set [8] (10 mg/kg i.p. 4 h before infection and days 2, 4 PI, FIG. 2A) is recorded as “two out of five”. The “survival rate, combined results of two trials” value in data set [8] (10 mg/kg, 21 days PI) is listed as 11/15.

As to `NC(=O)c1ncn([C@@H]2O[C@H](CO)[C@@H](O)[C@H]2O)n1` [ribavirin, reference compound], the “reduction of WNV titers” value with WNV [1] (100 μM) is 10 fold. In the data set on WNV [3] (<100 μM), the “protection of cells from WNV challenge” value is “failed to protect cells”.
